From the NIST ThermoML archive (doi:10.1016/j.fluid.2008.03.004)

Assay: xn = mol fraction of the nth substance listed
Settings: 101 kPa, Liquid; for speed of sound: Sing-around technique in a fixed-path interferometer

CCOC(C)(C)C [2-ethoxy-2-methylpropane] + Cc1ccccc1C
Settings	mass density [kg/m3]	speed of sound [m/s]
288.15 K, x1 = 0.055	875.654	1371.2
288.15 K, x1 = 0.098	870.017	1357.8
288.15 K, x1 = 0.201	855.684	1324.8
288.15 K, x1 = 0.307	840.866	1290.1
288.15 K, x1 = 0.4	827.772	1261.6
288.15 K, x1 = 0.502	813.516	1228.9
288.15 K, x1 = 0.601	800.311	1199
288.15 K, x1 = 0.661	791.943	1180.1
288.15 K, x1 = 0.803	772.557	1137.4
288.15 K, x1 = 0.895	759.896	1110.2
288.15 K, x1 = 0.947	752.872	1095
288.15 K, x1 = 1	744.955	1076.4
290.65 K, x1 = 0.055	873.542	1360.8
290.65 K, x1 = 0.098	867.884	1347.3
290.65 K, x1 = 0.201	853.503	1314.3
290.65 K, x1 = 0.307	838.637	1279.4
290.65 K, x1 = 0.4	825.503	1251
290.65 K, x1 = 0.502	811.198	1218.2
290.65 K, x1 = 0.601	797.952	1188.2
290.65 K, x1 = 0.661	789.556	1169.2
290.65 K, x1 = 0.803	770.105	1126.4
290.65 K, x1 = 0.895	757.404	1099.4
290.65 K, x1 = 0.947	750.354	1084.5
290.65 K, x1 = 1	742.482	1065.1
293.15 K, x1 = 0.055	871.419	1350.4
293.15 K, x1 = 0.098	865.74	1336.8
293.15 K, x1 = 0.201	851.313	1303.8
293.15 K, x1 = 0.307	836.397	1268.7
293.15 K, x1 = 0.4	823.223	1240.4
293.15 K, x1 = 0.502	808.871	1207.4
293.15 K, x1 = 0.601	795.578	1177.3
293.15 K, x1 = 0.661	787.156	1158.3
293.15 K, x1 = 0.803	767.641	1115.4
293.15 K, x1 = 0.895	754.895	1088.5
293.15 K, x1 = 0.947	747.821	1073.5
293.15 K, x1 = 1	739.947	1053.7
295.65 K, x1 = 0.055	869.295	1339.8
295.65 K, x1 = 0.098	863.594	1326.3
295.65 K, x1 = 0.201	849.119	1293.2
295.65 K, x1 = 0.307	834.156	1257.9
295.65 K, x1 = 0.4	820.937	1229.6
295.65 K, x1 = 0.502	806.537	1196.5
295.65 K, x1 = 0.601	793.199	1166.3
295.65 K, x1 = 0.661	784.75	1147.3
295.65 K, x1 = 0.803	765.167	1104.3
295.65 K, x1 = 0.895	752.377	1077.3
295.65 K, x1 = 0.947	745.278	1062.5
295.65 K, x1 = 1	737.374	1042.2
298.15 K, x1 = 0.055	867.167	1329.3
298.15 K, x1 = 0.098	861.446	1315.8
298.15 K, x1 = 0.201	846.922	1282.7
298.15 K, x1 = 0.307	831.91	1247.3
298.15 K, x1 = 0.4	818.651	1218.9
298.15 K, x1 = 0.502	804.2	1185.7
298.15 K, x1 = 0.601	790.817	1155.5
298.15 K, x1 = 0.661	782.341	1136.4
298.15 K, x1 = 0.803	762.689	1093.3
298.15 K, x1 = 0.895	749.853	1066.3
298.15 K, x1 = 0.947	742.726	1051.4
298.15 K, x1 = 1	734.806	1031
300.65 K, x1 = 0.055	865.039	1318.9
300.65 K, x1 = 0.098	859.296	1305.5
300.65 K, x1 = 0.201	844.725	1272.3
300.65 K, x1 = 0.307	829.661	1236.7
300.65 K, x1 = 0.4	816.36	1208.3
300.65 K, x1 = 0.502	801.859	1175
300.65 K, x1 = 0.601	788.431	1144.7
300.65 K, x1 = 0.661	779.923	1125.5
300.65 K, x1 = 0.803	760.203	1082.3
300.65 K, x1 = 0.895	747.321	1055.2
300.65 K, x1 = 0.947	740.169	1040.3
300.65 K, x1 = 1	732.225	1019.8
303.15 K, x1 = 0.055	862.904	1308.4
303.15 K, x1 = 0.098	857.143	1295.2
303.15 K, x1 = 0.201	842.523	1262
303.15 K, x1 = 0.307	827.409	1226.2
303.15 K, x1 = 0.4	814.064	1197.8
303.15 K, x1 = 0.502	799.512	1164.3
303.15 K, x1 = 0.601	786.037	1133.9
303.15 K, x1 = 0.661	777.502	1114.7
303.15 K, x1 = 0.803	757.711	1071.3
303.15 K, x1 = 0.895	744.78	1044.2
303.15 K, x1 = 0.947	737.602	1029.1
303.15 K, x1 = 1	729.647	1008.6
305.65 K, x1 = 0.055	–	1298
305.65 K, x1 = 0.098	–	1285
305.65 K, x1 = 0.201	–	1251.6
305.65 K, x1 = 0.307	–	1215.8
305.65 K, x1 = 0.4	–	1187.3
305.65 K, x1 = 0.502	–	1153.6
305.65 K, x1 = 0.601	–	1123.1
305.65 K, x1 = 0.661	–	1103.9
305.65 K, x1 = 0.803	–	1060.3
305.65 K, x1 = 0.895	–	1033.2
305.65 K, x1 = 0.947	–	1018
305.65 K, x1 = 1	–	997.52
